Source: article PMC4237199 (The Prostate, 2014)

Target: Prostate-specific membrane antigen (PSMA), canine (Canis lupus, UniProt I4IY07)
Experiment: HPLC-based enzyme inhibition assay
Format: biochemical

Sequence of Prostate-specific membrane antigen (PSMA), canine (I4IY07 29-779): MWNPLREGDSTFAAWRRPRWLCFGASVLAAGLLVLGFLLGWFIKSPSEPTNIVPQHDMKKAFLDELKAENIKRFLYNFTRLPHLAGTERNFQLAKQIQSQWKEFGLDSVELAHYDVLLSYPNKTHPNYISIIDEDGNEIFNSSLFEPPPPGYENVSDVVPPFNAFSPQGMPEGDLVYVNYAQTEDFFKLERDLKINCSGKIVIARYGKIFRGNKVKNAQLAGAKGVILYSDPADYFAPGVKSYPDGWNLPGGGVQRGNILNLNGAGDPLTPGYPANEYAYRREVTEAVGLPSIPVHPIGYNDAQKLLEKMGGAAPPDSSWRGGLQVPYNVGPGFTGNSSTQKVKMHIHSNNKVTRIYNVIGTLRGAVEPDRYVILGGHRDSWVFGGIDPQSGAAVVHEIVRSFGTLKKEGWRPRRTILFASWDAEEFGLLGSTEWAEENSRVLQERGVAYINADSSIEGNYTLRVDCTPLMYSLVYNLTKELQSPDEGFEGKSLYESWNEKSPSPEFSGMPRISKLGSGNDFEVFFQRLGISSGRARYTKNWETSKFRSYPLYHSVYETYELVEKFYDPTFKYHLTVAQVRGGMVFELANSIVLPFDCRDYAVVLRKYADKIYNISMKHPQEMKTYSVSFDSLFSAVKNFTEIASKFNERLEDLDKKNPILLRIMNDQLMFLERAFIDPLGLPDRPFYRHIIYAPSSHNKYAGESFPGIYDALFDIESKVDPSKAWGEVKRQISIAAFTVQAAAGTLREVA

**Q.** Which IC50 does the source give for FAMX-CTT-54 [compound 2] here?
**A.** 1.6 nM
